Assays:
female Wistar rats = experiment: Open field test in rats (locomotor activity); assay type: in vivo, rat; design: total distance traveled: unit not given here
Description: Naïve female Wistar rats (weighing 180–200 g) were used in the study. The animals were housed in groups of three to four in standard Makrolon cages (37 cm × 21 cm × 15 cm) under strictly controlled laboratory conditions (ambient temperature 21–24 °C, relative humidity 45–65%) with a 12/12 h light–dark regime (light on at 6:00 a.m. and off at 6:00 p.m.). Animals had unrestricted access to tap water and food (typical pellets). Prior the experiment the animals were randomly appointed to the group. The behavioral studies were accomplished between 8:00 a.m. and 5:00 p.m. with the researcher blind to the study. The experiments were performed according to protocols approved by the Local Ethical Committee in Krakow (Approval Number 147/2018), Poland. Housing and experimental procedures were conducted under the European Union Directive of September 22, 2010 (2010/63/EU) and Polish legislation regarding animal studies. All efforts were made to minimize animal suffering and the number of animals used in the study.
Vortioxetine (Sigma, Germany) and the tested compounds (16 and 6) were dissolved in 10% cyclodextrin and administered ip 30 min before the test or during 14 consecutive days, with the last injection 60 min before the test. 10% cyclodextrin was administrated to control group.
A modified forced swim test was carried out according to Detke et al.[50],[51] First, the animals were individually placed inside Plexiglas cylinders, which were 40 cm high and 18 cm in diameter, filled with water at a temperature of 23–25 °C for 15 min. Afterward, the rats were transferred to a Plexiglas box and kept under a 60 W bulb for 30 min to dry. The day after, exactly 24 h later, the rats were once again placed in the cylinder, and their duration of immobility, swimming, and climbing was observed and recorded during a 5 min. The swimming behavior involved energetic movements such as horizontal swimming around the cylinder, while climbing activity referred to upward movements of the forepaws along the swim chamber’s side. Immobility was recorded when the rat only made necessary movements to keep its head above the water. For each test, a fresh water was provided. Open field test in rats: The test was conducted as previously reported by our research group.[52] The test was performed in a darkened room employing the Motor Monitor System (Campden Instruments, Ltd., U.K.). The system was equipped with two SmartFrame Open Field stations, each measuring 40 cm × 40 cm × 38 cm and consisting of 16 × 16 beams. These stations were placed inside sound-attenuating chambers and connected to a PC software using […]. The animals, belonging to either the vehicle-injected or drug-injected group, were individually positioned at the center of the station. The Motor Monitor System, which was automated, recorded the animal’s ambulation in both the X and Y axes, as well as the number of rearing and peeping episodes. Additionally, the total distance traveled by each animal during the 5 min test period was also recorded. Statistical analysis: Results are presented as the mean ± SEM values. They were estimated using one-way analysis of variance (ANOVA), followed by Newman–Keuls post hoc or unpaired two-tailed Student t test. Statistical significance was considered when p < 0.05 for differences between groups.

[1] = Stability under radioligand binding assay conditions (incubation with brain tissue); assay type: in vitro ADME; conditions: after 1 h of incubation with brain tissue
[2] = Chemical stability assay in PBS; assay type: physicochemical
Description: The quantitative HPLC analyses were acquired using Waters Alliance e2695 separations module (Waters, Milford, CT, USA) containing 2998 photodiode array (PDA), a detector (Waters, Milford, CT, USA), and the SpeedROD RP-18e 50–4.6 mm column (Merck, KGaA, Darmstadt, Germany). The temperature of the column was preserved at 30 °C. […] Each sample was injected at a volume of 10 μL in triplicate. […] The stock solutions were mixed with methanol and diluted, resulting in various solutions with concentrations ranging from 1.0 to 0.125 μg/mL. These solutions were then utilized to generate calibration curves by plotting AUC versus concentration in μg/mL. The examined molecules (2 mg) were dissolved in 1 mL of Dulbecco’s phosphate buffered saline (DPBS). The mixture was then continuously agitated at 22 °C for 24 h using a thermoshaker. Following this period, the mixtures were filtered through a cellulose acetate syringe filter (with a pore size of 0.22 μm), moved to a chromatographic vial, and analyzed. To quantify the investigated compounds, the areas beneath their respective peaks on DAD chromatograms were employed. Solubility was calculated using the calibration curves. Chemical stability assay: Stock solution of 16 in DMSO (10 mg/mL) was used. Next, 25 μL of stock solution was mixed with 975 μL of PBS (Dulbecco’s phosphate-buffered saline, Sigma, Poland). […] HPLC analyses were used to quantify the percentage of molecules that remained at each time point relative to the 0 min time point. Brain tissue stability assay: […] Then, 50 μL of the stock solution was combined with 50 μL of ice-cold 50 mM Tris-HCl buffer (pH 7.4) and 150 μL of brain homogenate (suspended in 20 volumes of 50 mM Tris-HCl buffer, ice cold, pH 7.4). The mix was then incubated at 37 °C and quenched at several time points. To terminate the reaction mixture, 250 μL of the appropriate reaction mixture was mixed with 1000 μL of MeCM in the Eppendorf Tube. Following 10 min of shaking (1500 rpm), samples were centrifuged (10 000 rpm, 10 min, 4 °C) and the acquired supernatant was collected. Before conducting HPLC analysis, the supernatant was filtered via a cellulose acetate syringe filter with a pore size of 0.45 μm and then transferred to a chromatographic vial. HPLC analysis was used to determine the percentage of the tested molecule remaining at each time point, relative to the 0 min time point. Plasma stability assay was performed as described previously.[45] Frozen rat plasma (Wistar) was thawed. […] The samples were collected at relative time points. The reaction was terminated by adding 1200 of μL acetonitrile/methanol mixture (50:50, v/v). The samples were centrifuge at 25 000 rpm for 10 min. HPLC analysis was used to determine the percentage of the tested molecule remaining at each time point relative to the 0 min time point. All the experiments were performed in duplicate.

[3] = acute treatment, dose 3, ip 30 min prior
[4] = chronic treatment, dose 3, ip 14 days

Work on `Cc1c(OCc2ccccc2)cccc1N1CCN(CCOC(=O)CCCN)CC1.Cl.Cl` [Compound 16, 1-(2-((4-Ammoniobutanoyl)oxy)ethyl)-4-(3-(benzyloxy)-2-methylphenyl)piperazin-1-ium Dichloride] yielded a X ambulation (female Wistar rats; [3]) of 221.3, a Y ambulation (female Wistar rats; [3]) of 213.7 and a rearing (female Wistar rats; [3]) of 34.5. The total distance traveled (female Wistar rats; [3]) was 506.3, the “influence on spontaneous locomotor activity” value (female Wistar rats; acute, 3 mg/kg) was “did not observe any influence” and the X ambulation (female Wistar rats; [4]) was 260.4. For the same molecule, the Y ambulation (female Wistar rats; [4]) was 255.3, the rearing (female Wistar rats; [4]) was 52.2 and the total distance traveled (female Wistar rats; [4]) was 2575. The “changes in spontaneous locomotor activity” value (female Wistar rats; subchronic, 3 mg/kg) was “did not result in any significant changes”, the “% of the compound remaining” value [1] was 98.21% and the “% compound remaining, rt” value ([2]; 0 min) was 100 ± 0.2%. For the same molecule, the “% compound remaining, rt” value ([2]; 15 min) was 98.43 ± 1.8%, the “% compound remaining, rt” value ([2]; 30 min) was 94.23 ± 1.8% and the “% compound remaining, rt” value ([2]; 60 min) was 92.46 ± 2.2%. For the same molecule, the “% compound remaining, rt” value ([2]; 120 min) was 86.63 ± 2.3% and the “% compound remaining, rt” value ([2]; 240 min) was 62.21 ± 1.7%.

Reference: paper PMC10119930, “Dual Molecules Targeting 5-HT6 and GABA-A Receptors as a New Approach to Combat Depression Associated with Neuroinflammation” (ACS Chemical Neuroscience, 2023)
